# Laboratory results published in US20120014926A1, “Activation of Precursor Cells for Cell Therapy” (priority 2009, published 2012).
# Tests used:
# BMC = BMC migration towards SDF-1, modified Boyden chamber assay; assay type: cell-based, mouse; conditions: inhibitor added to upper chamber along with treated BMC; p<0.05
# Experimental: BMC migration towards SDF-1 was determined using a modified Boyden chamber assay. BMC were pre-incubated with either PBS or the invented solution for 4 hours at 37 deg.C. and transferred to the upper chamber of inserts in a 24-well plate containing DMEM and 100 ng/ml SDF-1. Migrated cells were counted after 6 hrs incubation at 37° C. Inhibitors AMD3100, LY294002, L-NMMA, and anti-CXCR4 antibody were added to the upper chamber along with BMC.
# [1] = tested on: mice after surgical implementation of hindlimb ischemia; assay: Homing of injected GFP BMC to ischemic hindlimb muscle; assay type: in vivo, mouse; conditions: SDF-1 protein 100 ng injected into ischemic hindlimb muscle; treated and untreated cells
# Experimental: SDF1 protein was also injected into the ischemic hindlimb muscle to enhance BMC homing. SDF-1 protein (100 ng) was injected into the ischemic hindlimb muscle of WT BL6 mice twice at consecutive days after the surgery. The hindlimb muscles were recovered 7 days after the cell injection, stained with DAPI for nucleus (light white), and examined for GFP cells (bright white, arrow pointed) incorporation under fluorescent microscopy. (A) untreated BMC, B) Treated BMC, C) Untreated BMC+SDF-1, D) Treated BMC+SDF-1. E) The incorporated GFP cells were quantified as cells per high power field (HPF). *P<0.05, and **P<0.01 versus all other groups (n=6).
Compound,mobility of the treated BMC on addition of inhibitor (BMC),effect of exogenous SDF-1 on homing of injected BMC [1]
CNC(=N)NCCC[C@H](N)C(=O)O [L-NNMA],significantly reduced,
"SDF-1: stromal cell derived factor-1, chemotactic cytokine, protein injected into ischemic hindlimb muscle",,homed more efficiently
c1cc(CN2CCCNCCNCCCNCC2)ccc1CN1CCCNCCNCCCNCC1 [AMD3100],significantly reduced,
